Assay results taken from patent US10717733B2, “Haloallylamine indole and azaindole derivative inhibitors of lysyl oxidases and uses thereof” (PHARMAXIS LTD., priority 2016, dated 2020).
Structures can show the parent of a compound that is named as a salt.

How the values were obtained:
Format in all cases: biochemical
Bovine LOX = Bovine LOX (Bos taurus (Bovine), UniProt P33072); experiment: LOX inhibition, peroxidase-coupled Amplex Red amine oxidase assay; settings: 30 min preincubation at 37° C., putrescine substrate
Sequence of Bovine LOX (P33072 170-418): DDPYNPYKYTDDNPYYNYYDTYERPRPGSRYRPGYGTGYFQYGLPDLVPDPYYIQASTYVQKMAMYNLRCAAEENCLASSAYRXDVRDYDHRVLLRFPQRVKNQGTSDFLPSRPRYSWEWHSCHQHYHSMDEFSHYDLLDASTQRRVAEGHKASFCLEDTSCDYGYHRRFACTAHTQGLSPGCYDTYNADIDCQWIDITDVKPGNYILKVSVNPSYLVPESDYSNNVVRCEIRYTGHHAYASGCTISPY
Outline: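 Bovine LOX in 1.2 M urea, 50 mM sodium borate pH 8.2 with 1 μM mofegiline and 0.5 mM pargyline; putrescine at twice KM (e.g. 20 mM for LOX) with Amplex Red/HRP. Fluorescence (ex 565/em 590 nm) read kinetically over 30 min at 37–45 °C; IC50 from slopes.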

Human LOXL2 = Human LOXL2 (Homo sapiens (Human), UniProt Q9Y4K0); experiment: LOXL2 inhibition, peroxidase-coupled Amplex Red amine oxidase assay; settings: 30 min preincubation at 37° C., putrescine substrate
Sequence of Human LOXL2 (Q9Y4K0 26-774): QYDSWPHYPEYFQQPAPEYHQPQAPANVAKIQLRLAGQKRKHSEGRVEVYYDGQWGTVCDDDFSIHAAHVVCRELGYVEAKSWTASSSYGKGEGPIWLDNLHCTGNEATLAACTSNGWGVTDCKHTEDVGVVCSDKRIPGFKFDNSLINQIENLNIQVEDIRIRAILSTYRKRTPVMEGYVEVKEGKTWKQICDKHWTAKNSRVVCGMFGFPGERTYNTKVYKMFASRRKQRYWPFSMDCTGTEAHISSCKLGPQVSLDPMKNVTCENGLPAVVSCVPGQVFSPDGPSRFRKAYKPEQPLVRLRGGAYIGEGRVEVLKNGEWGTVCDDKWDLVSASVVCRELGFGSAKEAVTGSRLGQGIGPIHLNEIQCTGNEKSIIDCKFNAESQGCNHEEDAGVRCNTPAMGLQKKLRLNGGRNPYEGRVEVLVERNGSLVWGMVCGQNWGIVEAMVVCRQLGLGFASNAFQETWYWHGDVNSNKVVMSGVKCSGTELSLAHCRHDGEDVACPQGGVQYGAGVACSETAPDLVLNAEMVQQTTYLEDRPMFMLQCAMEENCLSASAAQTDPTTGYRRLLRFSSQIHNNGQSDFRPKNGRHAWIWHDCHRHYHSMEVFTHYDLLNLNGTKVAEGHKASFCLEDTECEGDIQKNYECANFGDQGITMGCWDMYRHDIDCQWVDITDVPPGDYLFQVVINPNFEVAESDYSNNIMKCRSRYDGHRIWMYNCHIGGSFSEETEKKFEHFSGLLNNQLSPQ
Outline: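 Enzyme in 1.2 M urea, 50 mM sodium borate pH 8.2 with 1 μM mofegiline and 0.5 mM pargyline, preincubated 30 min at 37° C with compound (11-point CRC). Putrescine at twice KM (10 mM for LOXL2) with Amplex Red/HRP; fluorescence (ex 565, em 590) read kinetically 30 min; IC50 from slopes.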

[1] = molecular target: human recombinant SSAO/VAP-1 (Homo sapiens (Human), UniProt Q16853); experiment: Inhibition of human recombinant SSAO/VAP-1 amine oxidase activity; settings: 30 min preincubation at 37° C., 600 μM benzylamine
Sequence of human recombinant SSAO/VAP-1 (Q16853 34-763): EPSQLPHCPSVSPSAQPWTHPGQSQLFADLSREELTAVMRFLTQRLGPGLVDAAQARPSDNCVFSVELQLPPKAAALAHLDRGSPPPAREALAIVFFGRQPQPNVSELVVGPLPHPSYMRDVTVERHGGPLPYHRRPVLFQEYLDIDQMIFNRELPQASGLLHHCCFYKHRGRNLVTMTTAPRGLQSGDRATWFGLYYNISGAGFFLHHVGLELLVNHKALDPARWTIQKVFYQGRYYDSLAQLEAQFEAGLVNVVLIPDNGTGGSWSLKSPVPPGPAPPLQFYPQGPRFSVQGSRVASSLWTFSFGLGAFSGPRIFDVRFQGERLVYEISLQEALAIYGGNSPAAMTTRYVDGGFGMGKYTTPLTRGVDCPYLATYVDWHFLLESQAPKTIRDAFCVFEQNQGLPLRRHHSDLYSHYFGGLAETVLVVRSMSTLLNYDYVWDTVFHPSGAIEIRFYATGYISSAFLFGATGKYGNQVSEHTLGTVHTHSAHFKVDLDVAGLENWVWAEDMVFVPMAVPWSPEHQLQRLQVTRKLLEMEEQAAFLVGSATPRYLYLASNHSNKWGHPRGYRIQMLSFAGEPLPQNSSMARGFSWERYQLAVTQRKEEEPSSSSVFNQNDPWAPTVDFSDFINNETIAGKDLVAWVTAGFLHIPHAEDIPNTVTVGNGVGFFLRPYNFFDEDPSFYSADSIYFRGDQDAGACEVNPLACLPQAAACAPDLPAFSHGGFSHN
Outline: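 Purified SSAO/VAP-1 (residues 34-763, expressed in CHO Lec 8 cells; 0.25 μg/mL) preincubated 30 min at 37° C with compound in 0.1 M sodium phosphate pH 7.4. Reaction mix of 600 μM benzylamine, 120 μM Amplex Red and 1.5 U/mL HRP added; fluorescence (ex 565/em 590 nm) read every 2.5 min for 30 min; IC50 from kinetic slopes over 4-11 point curves.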

Recombinant human MAO-B = Recombinant human MAO-B (Homo sapiens (Human), UniProt P27338); experiment: Inhibition of human recombinant MAO-B; settings: benzylamine 100 μM
Sequence of Recombinant human MAO-B (P27338 whole entry): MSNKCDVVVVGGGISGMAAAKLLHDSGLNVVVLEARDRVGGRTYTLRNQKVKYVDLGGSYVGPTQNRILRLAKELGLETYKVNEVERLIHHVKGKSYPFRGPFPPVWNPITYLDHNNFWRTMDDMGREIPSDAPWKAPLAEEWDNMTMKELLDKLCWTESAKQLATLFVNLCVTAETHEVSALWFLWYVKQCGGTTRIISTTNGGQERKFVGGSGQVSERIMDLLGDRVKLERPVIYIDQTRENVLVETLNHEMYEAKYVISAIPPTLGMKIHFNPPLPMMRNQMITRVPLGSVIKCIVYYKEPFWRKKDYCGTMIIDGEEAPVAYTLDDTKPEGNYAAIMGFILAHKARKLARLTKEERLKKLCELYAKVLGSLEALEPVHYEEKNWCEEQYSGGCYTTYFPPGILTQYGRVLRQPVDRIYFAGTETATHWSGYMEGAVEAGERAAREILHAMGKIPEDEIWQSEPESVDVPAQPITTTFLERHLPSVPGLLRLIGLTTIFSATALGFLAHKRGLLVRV
Outline: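 Recombinant human MAO-B used as enzyme source (0.06 mg/mL, stated concentration). Run as for the human SSAO/VAP-1 assay, except benzylamine substrate at 100 μM.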

Cc1c(-c2ccncc2)c2cc(C(=O)NC(C)(C)C)ccc2n1C/C(F)=C/CN [Compound 91, (Z)-1-(4-amino-2-fluorobut-2-en-1-yl)-N-(tert-butyl)-2-methyl-3-(pyridin-4-yl)-1H-indole-5-carboxamide]
IC50 (Bovine LOX): > 0.3 µM | IC50 (Human LOXL2): < 0.3 µM | IC50 [1]: > 3 µM | IC50 (Recombinant human MAO-B): > 3 µM

CCOC(=O)c1ccc2c(c1)c(-c1ccc(F)cc1)c(C)n2C/C(F)=C/CN [Compound 24, ethyl (Z)-1-(4-amino-2-fluorobut-2-en-1-yl)-3-(4-fluorophenyl)-2-methyl-1H-indole-5-carboxylate]
IC50 (Bovine LOX): > 0.3 µM | IC50 (Human LOXL2): < 0.3 µM | IC50 [1]: > 3 µM | IC50 (Recombinant human MAO-B): > 3 µM

Cc1c(-c2ccncc2)c2cc(S(C)(=O)=O)ccc2n1C/C(F)=C/CN [Compound 88, (Z)-3-fluoro-4-(2-methyl-5-(methylsulfonyl)-3-(pyridin-4-yl)-1H-indol-1-yl)but-2-en-1-amine]
IC50 (Bovine LOX): > 0.3 µM | IC50 (Human LOXL2): < 0.3 µM | IC50 [1]: > 3 µM | IC50 (Recombinant human MAO-B): > 3 µM

COc1cc(-c2c(C)n(C/C(F)=C/CN)c3ccc(S(C)(=O)=O)cc23)ccn1 [Compound 98, (Z)-3-fluoro-4-(3-(2-methoxypyridin-4-yl)-2-methyl-5-(methylsulfonyl)-1H-indol-1-yl)but-2-en-1-amine]
IC50 (Bovine LOX): > 0.3 µM | IC50 (Human LOXL2): < 0.3 µM | IC50 [1]: > 3 µM | IC50 (Recombinant human MAO-B): > 3 µM

Cc1c(-c2cncc(S(=O)(=O)N(C)C)c2)c2cc(OC(F)(F)F)ccc2n1C/C(F)=C/CN [Compound 85, (Z)-5-(1-(4-amino-2-fluorobut-2-en-1-yl)-2-methyl-5-(trifluoromethoxy)-1H-indol-3-yl)-N,N-dimethyl-pyridine-3-sulfonamide Dihydrochloride]
IC50 (Bovine LOX): > 0.3 µM | IC50 (Human LOXL2): < 0.3 µM | IC50 [1]: > 3 µM | IC50 (Recombinant human MAO-B): > 3 µM

Cc1c(-c2cccc(S(=O)(=O)N(C)C)c2)c2cc(C#N)ccc2n1C/C(F)=C/CN [Compound 51, (Z)-3-(1-(4-amino-2-fluorobut-2-en-1-yl)-5-cyano-2-methyl-1H-indol-3-yl)-N,N-dimethylbenzenesulfonamide]
IC50 (Bovine LOX): > 0.3 µM | IC50 (Human LOXL2): < 0.3 µM | IC50 [1]: > 3 µM | IC50 (Recombinant human MAO-B): > 3 µM

Cc1c(-c2cccc(S(N)(=O)=O)c2)c2cc(C(=O)N(C)C)ccc2n1C/C(F)=C/CN [Compound 54, (Z)-1-(4-amino-2-fluorobut-2-en-1-yl)-N,N,2-trimethyl-3-(3-sulfamoylphenyl)-1H-indole-5-carboxamide]
IC50 (Bovine LOX): > 0.3 µM | IC50 (Human LOXL2): < 0.3 µM | IC50 [1]: > 3 µM | IC50 (Recombinant human MAO-B): > 3 µM

Cc1c(-c2ccc3c(c2)OCO3)c2cc(S(C)(=O)=O)ccc2n1C/C(F)=C/CN [Compound 92, (Z)-4-(3-(benzo[d][1,3]dioxol-5-yl)-2-methyl-5-(methylsulfonyl)-1H-indol-1-yl)-3-fluorobut-2-en-1-amine]
IC50 (Bovine LOX): > 0.3 µM | IC50 (Human LOXL2): < 0.3 µM | IC50 [1]: > 3 µM | IC50 (Recombinant human MAO-B): > 3 µM

Cc1c(-c2cccc(S(=O)(=O)N(C)C)c2)c2cc(O)ccc2n1C/C(F)=C/CN [Compound 37, (Z)-3-(1-(4-amino-2-fluorobut-2-en-1-yl)-5-hydroxy-2-methyl-1H-indol-3-yl)-N,N-dimethylbenzenesulfonamide]
IC50 (Bovine LOX): > 0.3 µM | IC50 (Human LOXL2): < 0.3 µM | IC50 [1]: > 3 µM | IC50 (Recombinant human MAO-B): > 3 µM

Cc1c(-c2cccc(S(=O)(=O)N(C)C)c2)c2cccnc2n1C/C(F)=C/CN [Compound 4, (Z)-3-(1-(4-amino-2-fluorobut-2-en-1-yl)-2-methyl-1H-pyrrolo[2,3-b]pyridin-3-yl)-N,N-dimethylbenzenesulfonamide]
IC50 (Bovine LOX): > 0.3 µM | IC50 (Human LOXL2): < 0.3 µM | IC50 [1]: > 3 µM | IC50 (Recombinant human MAO-B): > 3 µM

Cc1c(-c2cccc(N(C)S(C)(=O)=O)c2)c2cc(C(=O)N(C)C)ccc2n1C/C(F)=C/CN [Compound 39, (Z)-1-(4-amino-2-fluorobut-2-en-1-yl)-N,N,2-trimethyl-3-(3-(N-methylmethylsulfonamido)phenyl)-1H-indole-5-carboxamide]
IC50 (Bovine LOX): > 0.3 µM | IC50 (Human LOXL2): < 0.3 µM | IC50 [1]: > 3 µM | IC50 (Recombinant human MAO-B): > 3 µM

Cc1c(-c2cccc(S(=O)(=O)N(C)C)c2)c2nc(C(C)(F)F)ccc2n1C/C(F)=C/CN [Compound 111, (Z)-3-(1-(4-amino-2-fluorobut-2-en-1-yl)-5-(1,1-difluoroethyl)-2-methyl-1H-pyrrolo[3,2-b]pyridin-3-yl)-N,N-dimethylbenzenesulfonamide Dihydrochloride]
IC50 (Bovine LOX): > 0.3 µM | IC50 (Human LOXL2): < 0.3 µM | IC50 [1]: > 3 µM | IC50 (Recombinant human MAO-B): > 3 µM

Cc1c(-c2cccc(S(=O)(=O)N(C)C)c2)c2cccc(C(=O)O)c2n1C/C(F)=C/CN [Compound 48, (Z)-1-(4-amino-2-fluorobut-2-en-1-yl)-3-(3-(N,N-dimethylsulfamoyl)phenyl)-2-methyl-1H-indole-7-carboxylic acid]
IC50 (Bovine LOX): > 0.3 µM | IC50 (Human LOXL2): < 0.3 µM | IC50 [1]: > 3 µM | IC50 (Recombinant human MAO-B): > 3 µM

CN(C)S(=O)(=O)c1cccc(-c2c(Cl)n(C/C(F)=C/CN)c3cccnc23)c1 [Compound 99, (Z)-3-(1-(4-amino-2-fluorobut-2-en-1-yl)-2-chloro-1H-pyrrolo[3,2-b]pyridin-3-yl)-N,N-dimethylbenzenesulfonamide]
IC50 (Bovine LOX): > 0.3 µM | IC50 (Human LOXL2): < 0.3 µM | IC50 [1]: > 3 µM | IC50 (Recombinant human MAO-B): > 3 µM

COc1ccc2c(n1)c(-c1cccc(S(=O)(=O)N(C)C)c1)c(C)n2C/C(F)=C/CN [Compound 61, (Z)-3-(1-(4-amino-2-fluorobut-2-en-1-yl)-5-methoxy-2-methyl-1H-pyrrolo[3,2-b]pyridin-3-yl)-N,N-dimethylbenzenesulfonamide Dihydrochloride]
IC50 (Bovine LOX): > 0.3 µM | IC50 (Human LOXL2): < 0.3 µM | IC50 [1]: > 3 µM | IC50 (Recombinant human MAO-B): > 3 µM

Cc1ccc(S(=O)(=O)N(C)C)cc1-c1c(C)n(C/C(F)=C/CN)c2ccc(C(=O)O)cc12 [Compound 20, (Z)-1-(4-amino-2-fluorobut-2-en-1-yl)-3-(5-(N,N-dimethylsulfamoyl)-2-methylphenyl)-2-methyl-1H-indole-5-carboxylic acid]
IC50 (Bovine LOX): > 0.3 µM | IC50 (Human LOXL2): < 0.3 µM | IC50 [1]: > 3 µM | IC50 (Recombinant human MAO-B): > 3 µM

Cc1c(-c2cccc(S(=O)(=O)N(C)C)n2)c2cc(Cl)ccc2n1C/C(F)=C/CN [Compound 78, (Z)-6-(1-(4-amino-2-fluorobut-2-en-1-yl)-5-chloro-2-methyl-1H-indol-3-yl)-N,N-dimethylpyridine-2-sulfonamide]
IC50 (Bovine LOX): > 0.3 µM | IC50 (Human LOXL2): < 0.3 µM | IC50 [1]: > 3 µM | IC50 (Recombinant human MAO-B): > 3 µM

Cc1c(-c2cccc(S(=O)(=O)N(C)C)c2)c2cc(S(=O)(=O)N(C)C)ccc2n1C/C(F)=C/CN [Compound 58, (Z)-1-(4-amino-2-fluorobut-2-en-1-yl)-3-(3-(N,N-dimethylsulfamoyl)phenyl)-N,N,2-trimethyl-1H-indole-5-sulfonamide]
IC50 (Bovine LOX): > 0.3 µM | IC50 (Human LOXL2): < 0.3 µM | IC50 [1]: > 3 µM | IC50 (Recombinant human MAO-B): > 3 µM

NC/C=C(\F)Cn1cc(-c2ccc(F)cc2)c2ccccc21 [Compound 1, (Z)-3-fluoro-4-(3-(4-fluorophenyl)-1H-indol-1-yl)but-2-en-1-amine]
IC50 (Bovine LOX): > 0.3 µM | IC50 (Human LOXL2): < 0.3 µM | IC50 [1]: > 3 µM | IC50 (Recombinant human MAO-B): > 3 µM

Cc1c(-c2cccc(N(C)S(C)(=O)=O)c2)c2cc(C(=O)O)ccc2n1C/C(F)=C/CN [Compound 38, (Z)-1-(4-amino-2-fluorobut-2-en-1-yl)-2-methyl-3-(3-(N-methylmethylsulfonamido)phenyl)-1H-indole-5-carboxylic acid]
IC50 (Bovine LOX): > 0.3 µM | IC50 (Human LOXL2): < 0.3 µM | IC50 [1]: > 3 µM | IC50 (Recombinant human MAO-B): > 3 µM

COc1ccc2c(n1)c(-c1cccc(SC)c1)c(C)n2C/C(F)=C/CN [Compound 68, (Z)-3-fluoro-4-(5-methoxy-2-methyl-3-(3-(methylthio)phenyl)-1H-pyrrolo[3,2-b]pyridin-1-yl)but-2-en-1-amine Dihydrochloride]
IC50 (Bovine LOX): > 0.3 µM | IC50 (Human LOXL2): < 0.3 µM | IC50 [1]: > 3 µM | IC50 (Recombinant human MAO-B): > 3 µM

Cc1c(-c2cncc(S(=O)(=O)N(C)C)c2)c2cc(Cl)ccc2n1C/C(F)=C/CN [Compound 64, (Z)-5-(1-(4-amino-2-fluorobut-2-en-1-yl)-5-chloro-2-methyl-1H-indol-3-yl)-N,N-dimethylpyridine-3-sulfonamide]
IC50 (Bovine LOX): > 0.3 µM | IC50 (Human LOXL2): < 0.3 µM | IC50 [1]: > 3 µM | IC50 (Recombinant human MAO-B): > 3 µM

Cc1c(-c2cccc(S(=O)(=O)N(C)C)c2)c2nc(C(=O)O)ccc2n1C/C(F)=C/CN [Compound 43, (Z)-1-(4-amino-2-fluorobut-2-en-1-yl)-3-(3-(N,N-dimethylsulfamoyl)phenyl)-2-methyl-1H-pyrrolo[3,2-b]pyridine-5-carboxylic acid]
IC50 (Bovine LOX): > 0.3 µM | IC50 (Human LOXL2): < 0.3 µM | IC50 [1]: > 3 µM | IC50 (Recombinant human MAO-B): > 3 µM

CCOC(=O)c1ccc2c(c1)c(-c1cc(S(=O)(=O)N(C)C)ccc1C)c(C)n2C/C(F)=C/CN [Compound 19, (Z)-ethyl 1-(4-amino-2-fluorobut-2-en-1-yl)-3-(5-(N,N-dimethylsulfamoyl)-2-methylphenyl)-2-methyl-1H-indole-5-carboxylate]
IC50 (Bovine LOX): > 0.3 µM | IC50 (Human LOXL2): < 0.3 µM | IC50 [1]: > 3 µM | IC50 (Recombinant human MAO-B): > 3 µM
